What was measured:
[1] = tested on: MDSC; settings: pre-clinical models; cited from earlier work
[2] = tested on: gastric cancer; test: ANN classifier applied to pembrolizumab monotherapy gastric cancer data, threshold / probability score optimization; assay type: in vivo, human
Excerpt: Sensitivity refers to the number of true biomarker responders divided by number of actual responders; specificity refers to the number of true biomarker non-responders divided by number of actual non-responders; PPV refers to the number of true biomarker responders divided by number of total predicted biomarker responders (how well the biomarker-positive rating performs); and NPV—refers to the number of true biomarker non-responders divided by number of total predicted biomarker non-responders (how well the biomarker-negative rating performs).

[3] = tested on: patients with gastric cancer; test: Retrospective population-based TME classification of gastric cancer patients who received pembrolizumab (n = 45), RECIST response; assay type: in vivo, human; settings: for Class response rate: population-based classifier
Excerpt: The analysis included 45 gastric cancer tumor samples.
The ORR for all patients was 27% (12/45). […] When the patients were retrospectively analyzed and placed in the Class IA, the response rate was 80%; and in Class IS, the response rate was 18%.

[4] = tested on: HER2 negative metastatic breast cancer, NSCLC, hepatocellular carcinoma; settings: with paclitaxel (HER2 negative metastatic breast cancer), paclitaxel-carboplatin (advanced NSCLC), sorafenib (hepatocellular carcinoma), docetaxel (non-squamous NSCLC); cited from earlier work
[5] = tested on: solid tumors; test: Navicixizumab Phase 1A dose-escalation trial, retrospective Z-score and ANN biomarker analysis (n = 39); assay type: in vivo, human; settings: for Patients with benefit (SD or better): gynecological cancers
Protocol: A retrospective data analysis of a Phase 1A dose-escalation trial for patients with solid tumors. […] Patients with the above cancers had biopsies collected. Exploratory predictive biomarkers such as DLL4 and VEGF were measured in FFPE tumor specimens, either archived or fresh core needle biopsied at study entry (2 FFPE cores were preferred whenever possible) by immunohistochemistry. […] In the biomarker-positive subset, 48% achieved SD or better.
Model performance is tabulated in TABLE 40; and abbreviations and definitions are as follows; ACC is accuracy; AUC ROC is area under the receiving operator characteristic curve; Sensitivity is the number of true biomarker responders divided by number of actual responders; Specificity is the number of true biomarker non-responders divided by number of actual non-responders; PPV is positive predictive value, i.e., number of true biomarker responders divided by number of total predicted biomarker responders; NPV is negative predictive value, i.e., number of true biomarker non-responders divided by number of total predicted biomarker non-responders.

For `CCCc1nn(C)c2c(=O)[nH]c(-c3cc(S(=O)(=O)N4CCN(C)CC4)ccc3OCC)nc12` [sildenafil], the “Effect on MDSC functions” value [1] is given as “significantly inhibited the MDSC functions”.

In the case of Pembrolizumab, the “Biomarker positive Overall Response Rate (ORR)” value ([2]; Option 1: optimized threshold, both IS and IA groups (10/14)) is reported as 70%, the “Biomarker-positive ORR” value ([2]; Option 2: optimized threshold, only the IA subgroup (8/8)) is reported as 100% and the “Biomarker positive Overall Response Rate (ORR)” value ([2]; before threshold optimization) is reported as 80%. The “ORR (CR + PR) or class response rate” value ([3]; All (ORR), n = 45) was 12/45 (27%), the CR ([3]; All, n = 45, patients/total) was 3/45 and the PD ([3]; All, n = 45, patients/total) was 18/45. The PR ([3]; All, n = 45, patients/total) was 9/45, the Class response rate ([3]; Class A) was 0% and the Class response rate ([3]; Class IA, CR+PR in class / patients in class) was 80%. The Class response rate ([3]; Class ID) was 12%, the Class response rate ([3]; Class IS) was 18% and the “Overall Response Rate (ORR)” value ([3]; all patients, n = 45, CR+PR divided by total number of patients (RECIST)) was 27%. The “ORR (CR + PR) or class response rate” value ([3]; class A) was 0/8 (0%), the CR ([3]; class A, patients/class) was 0/8 and the PD ([3]; class A, patients/class) was 3/8. For the same molecule, the PR ([3]; class A, patients/class) was 0/8, the “ORR (CR + PR) or class response rate” value ([3]; class IA) was 8/10 (80%) and the CR ([3]; class IA, patients/class) was 2/10. The PD ([3]; class IA, patients/class) was 2/10, the PR ([3]; class IA, patients/class) was 6/10 and the “ORR (CR + PR) or class response rate” value ([3]; class ID) was 2/16 (12%). The CR ([3]; class ID, patients/class) was 0/16, the PD ([3]; class ID, patients/class) was 7/16 and the PR ([3]; class ID, patients/class) was 2/16. The “ORR (CR + PR) or class response rate” value ([3]; class IS) was 2/11 (18%), the CR ([3]; class IS, patients/class) was 1/11 and the PD ([3]; class IS, patients/class) was 6/11. For the same molecule, the PR ([3]; class IS, patients/class) was 1/11.

B1: Bavituximab (antibody, V domains shown)
VH: EVQLQQSGPELEKPGASVKLSCKASGYSFTGYNMNWVKQSHGKSLEWIGHIDPYYGDTSYNQKFRGKATLTVDKSSSTAYMQLKSLTSEDSAVYYCVKGGYYGHWYFDVWGAGTTVTVSS
VL: DIQMTQSPSSLSASLGERVSLTCRASQDIGSSLNWLQQGPDGTIKRLIYATSSLDSGVPKRFSGSRSGSDYSLTISSLESEDFVDYYCLQYVSSPPTFGAGTKLELK
notes: PS-targeting antibody
In the case of B1, the “Anti-tumor effects in clinical trials” value [4] is given as “Promising anti-tumor effects”.

B2: Navicixizumab (antibody, chains of the INN, looked up, V domains shown)
VH: QVQLVQSGAEVKKPGASVKISCKASGYSFTAYYIHWVKQAPGQGLEWIGYISNYNRATNYNQKFKGRVTFTTDTSTSTAYMELRSLRSDDTAVYYCARDYDYDVGMDYWGQGTLVTVSS
VL: DIVMTQSPDSLAVSLGERATISCRASESVDNYGISFMKWFQQKPGQPPKLLIYAASNQGSGVPDRFSGSGSGTDFTLTISSLQAEDVAVYYCQQSKEVPWTFGGGTKVEIK
VH2: QVQLVQSGAEVKKPGASVKVSCKASGYTFTNYWMHWVRQAPGQGLEWMGDINPSNGRTSYKEKFKRRVTLSVDKSSSTAYMELSSLRSEDTAVYFCTIHYDDKYYPLMDYWGQGTLVTVSS
VL2: B2 VL
notes: anti-VEGF/anti-DLL4 bispecific antibody
In the case of B2, the “Patients achieving SD (Stable Disease) or better (RECIST 1.1)” value ([5]; all-comers biomarker subset, n = 39) is reported as 38%, the “Patients achieving SD or better” value ([5]; biomarker-positive subset) is reported as 48% and the “Patients with benefit (SD or better)” value ([5]; biomarker-negative (n=6)) is reported as 0%. The “Patients with benefit (SD or better)” value ([5]; biomarker-positive (n=12)) was 58%.

Reference: patent US20210174908A1, “CLASSIFICATION OF TUMOR MICROENVIRONMENTS” (Oncxerna Therapeutics, Inc., priority 2019, published 2021)
